From article PMC8041284, “Tunable Methacrylamides for Covalent Ligand Directed Release Chemistry” (Journal of the American Chemical Society, 2021) come the findings set out here.

SMILES strings stand for the structures.

The test deals with BTK (Homo sapiens, UniProt Q06187). As to the kind of experiment: biochemical. The settings on record: read-out: BTK inhibition (%), 0.75 uM BTK, […] probe 3l, 15 min preincubation.
BTK, sequence (Q06187 402-655 limits assumed): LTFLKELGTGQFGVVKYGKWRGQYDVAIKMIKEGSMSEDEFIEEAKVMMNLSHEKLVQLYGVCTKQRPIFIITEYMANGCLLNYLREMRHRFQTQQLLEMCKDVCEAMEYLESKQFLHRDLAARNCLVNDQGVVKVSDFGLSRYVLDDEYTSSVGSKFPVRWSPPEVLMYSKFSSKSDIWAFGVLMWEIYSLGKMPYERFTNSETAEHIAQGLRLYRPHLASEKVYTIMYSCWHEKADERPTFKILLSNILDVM

What is called inhibition is the drop in the measured response relative to a control, in per cent. With `O=C(O)c1ccc2c3c1cccc3c(=O)n1c3ccccc3nc21` [PCM-0215754], the inhibition at 10 µM turned out to be 13.8%.

As for `CC#Cc1cncc(-c2ccc3c(c2)[C@@]2(N=C(C)C(N)=N2)C2(CCC(OC)CC2)C3)c1` (some centres unmarked) [PCM-0215755], the inhibition at 10 µM is 0%. Under `C[C@]12CC[C@H]3[C@@H](CC=C4CC(O)CC[C@@]43C)[C@@H]1CC[C@@H]2C(O)CC(O)(C(F)(F)F)C(F)(F)F` (some centres unmarked) [PCM-0215756] stands 11.6%. With `O=C(Nc1ccccc1-c1cn2c(CN3CC[C@@H](O)C3)csc2n1)c1ccc2ccccc2c1` [PCM-0215757] the figure was -1.5%. For `COc1cc2c(NC3CCN(C(C)C)CC3)nc(C3CCCCC3)nc2cc1OCCCN1CCCC1` [PCM-0215758], the inhibition at 10 µM is -10.8%.

In the case of `CCOC(=O)C1=C(C)NC(=S)NC1c1cccc(O)c1` (centres unmarked) [PCM-0215759], the inhibition at 10 µM is -25.5%.

On to `C[C@H](NC(=O)CCC(F)(F)F)C(=O)N[C@@H]1C(=O)N(CCO)c2ncccc2-c2ccccc21` [PCM-0215760], for which the inhibition at 10 µM was 15.4%. With `O=C(O)[C@H](O)Cc1ccc(O)c(O)c1` [PCM-0215761] the figure was 7.7%. With `CNCCN(C)Cc1cn[nH]c1-c1ccc(OC2CC(OCCC3CCOCC3)C2)cc1` (centres unmarked) [PCM-0215762] the figure was 11.6%; with `O=C1Nc2ccc(CN3C(=O)CSC3=O)cc2/C1=C/c1cc(CN2CCOCC2)c[nH]1` [PCM-0215763], -11%; with `N#Cc1ccc([C@H]2CCc3cncn32)c(F)c1` [PCM-0215764], 6.2%. Consider `COc1cn(-c2ccc(-n3cccn3)cc2F)nc(-c2ccnn2-c2ccccc2)c1=O` [PCM-0215765], for which the inhibition at 10 µM amounted to 2.3%. Turning to `CC(N)=NCc1cccc(CN)c1` [PCM-0215766], the inhibition at 10 µM stood at 13.1%. Under `CC(C)(O)CNc1ncc(-c2ccnc(Nc3ccncc3)n2)c(CC2CC2)n1` [PCM-0215768] stands 9.7%. Under `CNc1ccc([N+](=O)[O-])c(Nc2ccc3[nH]ncc3c2)n1` [PCM-0215769] stands 32.4%. For `CN(CC(=O)N(Cc1ccc(C2CCCCC2)cc1)c1ccc(C(=O)O)c(O)c1)S(=O)(=O)c1c(F)c(F)c(F)c(F)c1F` [PCM-0215770], the inhibition at 10 µM is 82.6%. With `Cc1cc(O)c(-c2ccc([C@@H](C)CN)cc2)c2c1[nH]c(=O)c1sccc12` [PCM-0215772] the figure was 70.3%.

Consider `C[C@H](CN(C)C)Oc1nc(Nc2cc3cccc(Cl)c3cn2)cnc1C#N` [PCM-0215773], for which the inhibition at 10 µM was -3.4%. With `CC(Nc1nc(N2CCCC2)nc2ccccc12)c1ccccc1` (centres unmarked) [PCM-0215774] the figure was -23.2%; with `Cc1c(CN2CCC(Nc3ncnc4sc(CC(F)(F)F)cc34)CC2)ccc2[nH]c(C#N)cc12` [PCM-0215775], 32.4%; with `Cc1ccc(C=NNC(=O)c2ccccc2Oc2ccccc2)o1` [PCM-0215777], -16.2%. With `CC(C)(NS(=O)(=O)c1ccc2c(Cl)cnc(N=C(N)N)c2c1)C(=O)O` [PCM-0215778] the figure was -11.6%; with `CN(CC(=O)N(Cc1ccc(C2CCCCC2)cc1)c1ccc(C(=O)NO)cc1)S(=O)(=O)c1c(F)c(F)c(F)c(F)c1F` [PCM-0215779], 19.3%; with `CC(C)(C)c1cc(NC(=O)Nc2ccc(Oc3ccnc4[nH]c(=O)cnc34)cc2F)n(-c2ccccc2)n1` [PCM-0215780], 61.4%. With `c1ccc(CNCc2ccc(CN3CCCNCCNCCCNCC3)cc2)nc1` [PCM-0215781] the figure was -2.6%; with `CC(C)c1c2cc(-c3ccnc(NC4CCC(NC5CCOCC5)CC4)n3)ccc2nn1C` (centres unmarked) [PCM-0215782], 3.4%. On to `CC(C)C(C(=O)O)N1C(=O)/C(=C\c2ccc(Br)cc2)SC1=S` (centres unmarked) [PCM-0215783], for which the inhibition at 10 µM was -3.1%. On to `Cc1nn(C)c2nc(NNC(=O)Nc3cc(Cl)nc(Cl)c3)cc(C(C)C)c12` [PCM-0215784], for which the inhibition at 10 µM is 54.8%. Under `Cc1nc2cccc(N)c2c(=O)n1C1CCC(=O)NC1=O` (centres unmarked) [PCM-0215785] stands 2.3%; under `CCCCCCCCCCCCCC(=S)NCCCC[C@H](NC(=O)OCc1ccccc1)C(=O)Nc1ccccc1` [PCM-0215787], -6.2%; under `C=CC(=O)N1CC[C@@H](Oc2nc(Nc3ccc(N4CCC(N5CCN(C)CC5)CC4)cc3)c(C(N)=O)nc2CC)C1` [PCM-0215788], 91%. Under `Fc1ccc(-c2c3cccc(C(F)(F)F)c3nn2Cc2ccc(F)cc2Cl)cc1` [PCM-0215789] stands 30.1%; under `CC(C)c1cnn2c(NCc3ccccc3-n3cccn3)nc(OC3CCCNC3)nc12` (centres unmarked) [PCM-0215792], -2.8%. Under `CC(C(=O)Nc1cccc(N=Cc2c(O)ccc3ccccc23)c1)c1ccccc1` (centres unmarked) [PCM-0215794] stands 21.6%; under `C=C1CCC[C@]2(C)C=C3OC(=O)C(C)=C3C[C@@H]12` [PCM-0215796], -4.1%; under `O=c1[nH]ccc2c(S(=O)(=O)N3CCCNCC3)cccc12` [PCM-0215797], -2.8%. With `OC1CCC(Oc2cccc3cnc(Nc4ccc5nc[nH]c5c4)nc23)CC1` (centres unmarked) [PCM-0215798], the inhibition at 10 µM stood at 66.2%. With `O=c1[nH]nc2c3c(cccc13)NC(CN1Cc3ccccc3C1)=N2` [PCM-0215799] the figure was 0.8%.

Take `Cc1c(C)c(NCC(=O)N(C)C2CCN(Cc3ccc(C(N)=O)cc3)CC2)c(C)c(C)c1N` [PCM-0215800]: the inhibition at 10 µM came out at 12.4%. With `N=C1S/C(=C\c2ccc(-c3ccc4c(c3)C(=O)NC4=O)o2)C(=O)N1c1ccc(Br)cc1` [PCM-0215801] the figure was 27%; with `CC(C)Oc1ccc(-c2nn([C@@H](C)c3oc4ccc(F)cc4c(=O)c3-c3cccc(F)c3)c3ncnc(N)c23)cc1F` [PCM-0215802], -2.1%. With `COc1ccc(C(NC(=O)c2cnc(-c3cccnn3)[nH]c2=O)c2ccc(OC)cc2)cc1` [PCM-0215803] the figure was 18.5%. With `Cc1cc(C(=O)Nc2nc3cccc(Cl)c3n2[C@@H]2CCCCN(C(=O)/C=C/CN(C)C)C2)ccn1` [PCM-0215804] the figure was 73.8%.

Regarding `Cc1cc(O)c(-c2ccc([C@@H](C)CN(C)C)cc2)c2c1[nH]c(=O)c1sccc12` [PCM-0215805], the inhibition at 10 µM came out at 38.6%.

Turning to `O=[N+]([O-])c1ccc(Nc2ccccc2-c2ccccc2)c2nonc12` [PCM-0215806], the inhibition at 10 µM amounted to 74.1%. With `C=CC(=O)N[C@H]1CCOC[C@H]1Nc1ncc2cc(-c3c(Cl)c(OC)cc(OC)c3Cl)ccc2n1` [PCM-0215807] the figure was 22.1%. With `NS(=O)(=O)c1ccc(NC(=S)N2CCN(C/C=C/c3ccccc3)CC2)cc1` [PCM-0215808] the figure was 2.3%; with `NC(=O)c1cc(F)cc2c1C(=O)N(C1CCN(C3CCC(F)(F)CC3)CC1)C2` [PCM-0215809], 4.6%. With `CC1=C(C(=O)Nc2ccc3[nH]ncc3c2)C(c2ccc(F)cc2)NC(=O)N1` (centres unmarked) [PCM-0215810] the figure was 19.3%; with `CONC(=O)c1ccccc1Nc1cc(Nc2cc(C)nn2C(C)C)ncc1Cl` [PCM-0215811], -10.3%. On to `COCCCc1sc(-c2ccccc2)nc1C(=O)Nc1ccccc1-c1nc2cc(CN3CCCC3)cnc2s1` [PCM-0215812], for which the inhibition at 10 µM came out at 57.9%.

In the case of `CS(=O)(=O)c1ccc(-c2cnc(NCc3ccco3)n3cnnc23)cc1` [PCM-0215813], the inhibition at 10 µM was -6.9%.

Turning to `Cc1cccc(Nc2nc(N[C@@H]3CCCC[C@@H]3N)ncc2C(N)=O)c1` [PCM-0215814], the inhibition at 10 µM worked out at 82.8%. Under `COc1ccc2c(c1)[C@]1(C[C@H]1c1ccc3c(/C=C/c4ccc(CN5C[C@@H](C)O[C@@H](C)C5)cc4)n[nH]c3c1)C(=O)N2` [PCM-0215815] stands 86.9%; under `NC(=O)[C@H](CCCN=C(N)CCl)NC(=O)c1ccccc1` [PCM-0215816], -5.5%. As for `COc1ccc(S(=O)(=O)NCc2ccc(C(=O)NCCc3ccc(Cl)cn3)cc2)cc1` [PCM-0215817], the inhibition at 10 µM was -22.4%. `O=C(NC1(c2ccccc2)CC1)c1c(CN2CCC(N3CCCCC3)CC2)c(-c2cccc(C(F)(F)F)c2)nc2cc(Br)ccc12` [PCM-0215818]: the inhibition at 10 µM amounted to 36.3%. Under `C[C@@H](N)C(=O)N[C@@H](CO)C(=O)N[C@H](C(=O)N[C@H](C(=O)N[C@H](C(=O)N[C@@H](CC(N)=O)C(=O)N[C@@H](Cc1ccc(O)cc1)C(=O)N[C@H](C(N)=O)[C@@H](C)O)[C@@H](C)O)[C@@H](C)O)[C@@H](C)O` [PCM-0215819] stands 11.1%; under `C=CC(=O)N1CC/C(=C\c2ccc(F)c([N+](=O)[O-])c2)C(=O)/C(=C/c2ccc(F)c([N+](=O)[O-])c2)C1` [PCM-0215820], 31.7%.

For `NC(=O)/C(=C/n1cnc(-c2cc(C(F)(F)F)cc(C(F)(F)F)c2)n1)c1cncnc1` [PCM-0215821], the inhibition at 10 µM was -10%. Under `CC[C@H](C)[C@H](N)C(=O)N[C@H]1CSSC[C@@H](C(=O)N[C@H](C(N)=O)[C@@H](C)O)NC(=O)[C@H](CCCN=C(N)N)NC(=O)[C@H](Cc2cnc[nH]2)NC(=O)[C@H](Cc2cnc[nH]2)NC(=O)CNC(=O)[C@H](Cc2c[nH]c3ccccc23)NC(=O)[C@H](CC(=O)O)NC(=O)[C@H](CCC(N)=O)NC(=O)[C@H](C(C)C)NC(=O)[C@H](C(C)C)NC1=O` [PCM-0215822] stands -3.4%.

In the case of `C=CC(=O)N1CC(N2CCN(C(=O)CNc3cc(C4(C)CC4)c(Cl)cc3O)CC2)C1` [PCM-0215823], the inhibition at 10 µM was -9.3%. With `CN[C@@H](C)C(=O)N[C@H](C(=O)N1CCC[C@H]1C(=O)N[C@H]1c2ccccc2C[C@H]1OCC#CC#CCO[C@@H]1Cc2ccccc2[C@@H]1NC(=O)[C@@H]1CCCN1C(=O)[C@@H](NC(=O)[C@H](C)NC)C1CCCCC1)C1CCCCC1` [PCM-0215824] the figure was 2.6%.

For the compound `CC[C@@H](N)CNc1ccnc(-c2cc(-c3cnn(C)c3)ccc2O)n1` [PCM-0215825], the inhibition at 10 µM was determined as 2.8%.

Regarding `O=c1nc(N2CCOCC2)oc2c(-c3cccc4c3sc3ccccc34)cccc12` [PCM-0215826], the inhibition at 10 µM was -1.4%.
